Results as given in patent US6756370B1, “Piperidine alcohols” (Merck Patent GmbH, priority 1999, dated 2004).
Counter-ions that a name gives are not always drawn. Like-named read-outs stand apart in the source and are kept apart here.

Tests used:
5-HT2A receptors = biological target: T1, 5-HT2A receptors (Rattus norvegicus, UniProt P14842); test: 5-HT2A receptor binding test ([3H]ketanserin displacement)
T1 construct: Frontal rat cortex is homogenized in ice-cold buffer; from tissue; host or cells: rat frontal cortex homogenate (membrane pellet)
T1 sequence (P14842 whole entry): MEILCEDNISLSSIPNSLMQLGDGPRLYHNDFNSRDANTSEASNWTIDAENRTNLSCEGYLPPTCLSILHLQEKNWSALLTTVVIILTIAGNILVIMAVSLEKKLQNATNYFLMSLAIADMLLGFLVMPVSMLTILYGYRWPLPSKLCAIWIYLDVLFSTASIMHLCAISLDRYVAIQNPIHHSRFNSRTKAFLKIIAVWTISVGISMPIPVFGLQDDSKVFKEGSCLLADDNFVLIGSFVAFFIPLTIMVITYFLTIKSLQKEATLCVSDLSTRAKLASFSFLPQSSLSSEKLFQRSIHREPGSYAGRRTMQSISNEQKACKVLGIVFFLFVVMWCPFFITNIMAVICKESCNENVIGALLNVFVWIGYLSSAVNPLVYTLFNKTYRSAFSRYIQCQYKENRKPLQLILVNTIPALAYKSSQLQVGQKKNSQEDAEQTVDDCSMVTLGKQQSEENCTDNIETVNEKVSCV
Protocol: For the in-vitro detection of the affinity for 5-HT2A receptors, it is possible to use, for example, the following test (Example A1). The 5-HT2A receptors are exposed to both [^3H]ketanserin (a substance known for its affinity for the receptor) and the test compound. The decrease in the binding of [^3H]ketanserin to the receptor is a sign of the affinity of the test substance for the 5-HT2A receptor. Detection is carried out analogously to the description of J. E. Leysen et al., Molecular Pharmacology, 1982, 21: 301-314 or as also described, for example, in EP 0320983.
Preparation of a suspension of 5-HT2A receptors: Frontal rat cortex is homogenized in ice-cold buffer. The homogenate is centrifuged for 10 minutes at 4° C. and 50,000×[sic]. The pellet is resuspended in 2.5 ml of ice-cold tris buffer, made up with 10 ml of additional buffer and centrifuged as described [lacuna]. The pellet is then resuspended in buffer and diluted to give a homogenate which contains 60 mg of material/ml. 0.1 ml of the suspension, 100 μl of a 5 nM solution of [^3H]ketanserin, 100 μl of a solution of the test compound (concentration in the range from 10^−5 to 10^−10 mol per litre) are added to the incubation tubes and made up to 1 ml with buffer. The tubes are incubated for 15 minutes at 37° C. After termination of the incubation by immersing the tubes in an ice bath, the cooled suspension is filtered through a glass filter in vacuo. The filters are washed 3× with 5 ml of cold buffer and then transferred to scintillation tubes. The filters are analysed by means of liquid scintillation spectrometry in 8 ml of Triton X scintillator fluid.
The IC50 values are indicated for the binding tests.

[1] = system: DOI-induced head-twitching in mice; test: DOI-induced head-twitching in mice (DOI antagonism); assay type: in vivo; conditions: male mice, test compound orally, 30 minutes later 3 mg/kg of DOI intraperitoneally, observed for 15 minutes
From the text: Serotonin-2(5-HT2)agonists such as 1-(2,5-dimethoxy-4-iodophenyl)-2-aminopropane (DOI) induce sterotypic behaviour patterns such as, for example, head-twitching or ear-scratching in various animals such as, for example, mice or rats (N. A. Darmani et al., Pharmacol. Biochem. Behav. 1989, 36: 901-906; N. A. Darmani et al., Pharmacol. Biochem. Behav. 1990, 37: 95-99; N. A. Darmani et al., Pharmacol. Biochem. Behav. 1994, 48: 383-396; D. L. Willins and H. Y. Meltzer, J. Pharmacol. Exp. Ther., 1997, 282: 699-706).
DOI-induced head-twitching in mice is used in order to test compounds having 5-HT2A antagonistic properties. The test compound is orally administered to male mice. 30 minutes later, 3 mg/kg of DOI is [sic] are administered intraperitoneally. The animals are observed for 15 minutes and the number of head twitches is noted. Quantification of the in vivo antagonistic effect of the test compounds ensues by comparison with the number of head twitches from those investigations in which the animals were only DOI-treated.

[2] = frontal rat cortex homogenate, 15 minutes at 37° C.

Molecule	IC50 (5-HT2A receptors; read-out: IC50 values (concentrations in mol/l at which 50% of the radioactive ligands are displaced from the binding sites), frontal rat cortex homogenate, 15 minutes at 37° C.)	IC50 (5-HT2A receptors; [2])	Inhibition [%], suppression of behaviour elicited (head-twitching in mice), DOI antagonism [1]	melting point
1-{1-[2-(2,3-dimethoxy-phenyl)ethyl]piperidin-4-yl}-1-(4-fluorophenyl)ethanol, hydroiodide	11 nM	–	–	–
Cc1cc(CCN2CCC(C(C)(O)c3ccc(F)cc3)CC2)sc1Cl (racemic)	–	4.2 nM	–	–
Cc1nc(CCN2CCC(C(C)(O)c3ccc(F)cc3)CC2)cs1 (racemic)	–	66 nM	–	–
Cc1ccccc1CCN1CCC(C(C)(O)c2ccc(C(F)(F)F)cc2)CC1 (racemic)	–	1.4 nM	–	–
CC(O)(c1ccc(F)cc1)C1CCN(CCc2ccc(Cl)cc2Cl)CC1 (racemic)	–	2 nM	–	–
CC(O)(c1ccc(F)cc1)C1CCN(CCc2ccc(F)cc2F)CC1 (racemic)	–	0.83 nM	–	–
CC(O)(c1ccc(F)cc1)C1CCN(CCc2cc(Cl)sc2Cl)CC1 (racemic)	–	2.2 nM	–	–
CC(O)(c1ccc(F)cc1)C1CCN(CCc2ccc(C#N)cc2)CC1 (racemic)	–	27 nM	–	–
CC(O)(c1ccc(F)cc1)C1CCN(CCc2ccc(C(F)(F)F)cc2)CC1 (racemic)	–	32 nM	–	–
CC(O)(c1ccc(F)cc1)C1CCN(CCc2ccc(Br)s2)CC1 (racemic)	–	3.9 nM	–	–
CC(O)(c1ccc(F)cc1F)C1CCN(CCc2ccc(Cl)s2)CC1 (racemic)	–	5.5 nM	–	–
CC(O)(c1ccc(C(F)(F)F)cc1)C1CCN(CCc2ccc(Cl)s2)CC1 (racemic)	–	8.6 nM	–	–
COc1ccc(CCN2CCC(C(C)(O)c3ccc(F)cc3)CC2)s1 (racemic)	–	21 nM	–	–
Cc1ccc(CCN2CCC(C(C)(O)c3ccc(F)cc3)CC2)s1 (racemic)	–	0.89 nM	–	–
CC(O)(c1ccc(F)cc1)C1CCN(CCc2ccsc2)CC1 (racemic)	–	2.2 nM	–	–
CC(O)(c1ccc(Cl)cc1)C1CCN(CCc2ccc(F)cc2)CC1.Cl (racemic) [1-{1-[2-(4-fluorophenyl)ethyl]piperidin-4-yl}-1-(4-chlorophenyl)ethanol, hydrochloride]	–	1.3 nM	96%	201 to 203 °C
CC(O)(c1ccc(F)cc1)C1CCN(CCc2ccc(F)cc2)CC1 (racemic) [1-{1-[2-(4-fluorophenyl)ethyl]piperidin-4-yl}-1-(4-fluorophenyl)ethanol]	–	1.3 nM	–	122 to 123 °C
CC(O)(c1ccc(Cl)s1)C1CCN(CCc2ccc(F)cc2)CC1 (racemic) [1-{1-[2-(4-fluorophenyl)ethyl]piperidin-4-yl}-1-(5-chlorothiophen-2-yl)ethanol]	–	0.75 nM	26%	159 to 160 °C

Molecule	IC50 (5-HT2A receptors; read-out: IC50 values (concentrations in mol/l at which 50% of the radioactive ligands are displaced from the binding sites), frontal rat cortex homogenate, 15 minutes at 37° C.)	IC50 (5-HT2A receptors; [2])	Inhibition [%], suppression of behaviour elicited (head-twitching in mice), DOI antagonism [1]	melting point
CC(O)(c1cccc2c1OCCO2)C1CCN(CCc2ccc(F)cc2)CC1.Cl (racemic) [1-{1-[2-(4-fluorophenyl)ethyl]piperidin-4-yl}-1-(benzo[1,4]dioxan-5-yl)ethanol, hydrochloride]	–	3.7 nM	9%	209 to 212 °C
CC(O)(c1ccc(Cl)cc1)C1CCN(CCc2ccc(Cl)s2)CC1.Cl (racemic) [1-{1-[2-(5-chlorothiophen-2-yl)ethyl]piperidin-4-yl}-1-(4-chlorophenyl)ethanol, hydrochloride]	–	2.6 nM	28%	192 to 193 °C
CC(O)(c1ccc(F)cc1)C1CCN(CCc2ccc(Cl)s2)CC1 (racemic) [1-{1-[2-(5-chlorothiophen-2-yl)ethyl]piperidin-4-yl}-1-(4-fluorophenyl)ethanol]	–	0.69 nM	–	–
CC(O)(c1ccccc1)C1CCN(CCc2ccc(Cl)s2)CC1.I (racemic) [1-{1-[2-(5-chlorothiophen-2-yl)ethyl]piperidin-4-yl}-1-phenylethanol, hydroiodide]	–	0.83 nM	–	177 to 178 °C
CC(O)(c1ccc(F)cc1)C1CCN(CCc2cccs2)CC1.Cl (racemic) [1-{1-[2-(thiophen-2-yl)ethyl]piperidin-4-yl}-1-(4-fluorophenyl)ethanol, hydrochloride]	–	–	–	222 to 223 °C
CC(O)(c1ccccc1)C1CCN(CCc2ccc(F)cc2)CC1.I (racemic) [R1=4-fluorophenyl, R2=phenyl, HI, rac, 1-{1-[2-(4-fluorophenyl)ethyl]piperidin-4-yl}-1-phenylethanol, hydroiodide]	–	0.68 nM	–	205 to 207 °C
CC(O)(c1ccc(F)cc1)C1CCN(CCc2ccncc2)CC1 (racemic) [R1=4-pyridyl, R2=4-fluorophenyl, rac]	–	220 nM	–	–
CC(O)(c1ccc(F)cc1)C1CCN(CCc2ccc(F)cc2F)CC1 (single isomer, unassigned) [listing 1 of 2 here]	–	40 nM	–	–
CC(O)(c1ccc(F)cc1)C1CCN(CCc2ccc(F)cc2F)CC1 (single isomer, unassigned) [listing 2 of 2 here]	–	2.9 nM	–	–
CC(O)(c1ccc(F)cc1F)C1CCN(CCc2ccc(F)cc2)CC1 (single isomer, unassigned) [listing 1 of 2 here]	–	2200 nM	–	–
CC(O)(c1ccc(F)cc1F)C1CCN(CCc2ccc(F)cc2)CC1 (single isomer, unassigned) [listing 2 of 2 here]	–	0.72 nM	–	–
CC(O)(c1ccc(F)cc1)C1CCN(CCc2ccsc2)CC1 (single isomer, unassigned) [listing 1 of 2 here]	–	250 nM	–	–
CC(O)(c1ccc(F)cc1)C1CCN(CCc2ccsc2)CC1 (single isomer, unassigned) [listing 2 of 2 here]	–	3.3 nM	–	–
CC(O)(c1ccc(F)cc1)C1CCN(CCc2ccc(F)cc2)CC1 (single isomer, unassigned; (+)) [(+)-1-{1-[2-(4-fluorophenyl)ethyl]piperidin-4-yl}-1-(4-fluorophenyl)ethanol, hydrochloride]	–	0.35 nM	–	–
CC(O)(c1ccc(F)cc1)C1CCN(CCc2ccc(Cl)s2)CC1.Cl (single isomer, unassigned; (+)) [(+)-1-{1-[2-(5-chlorothiophen-2-yl)ethyl]piperidin-4-yl}-1-(4-fluorophenyl)ethanol, hydrochloride]	–	1.1 nM	21%	210 to 211 °C
CC(O)(c1ccc(F)cc1)C1CCN(CCc2ccc(F)cc2)CC1.Cl (single isomer, unassigned; (-)) [(−)-1-{1-[2-(4-fluorophenyl)ethyl]piperidin-4-yl}-1-(4-fluorophenyl)ethanol, hydrochloride]	–	57 nM	–	185 to 186 °C
COc1cccc(C(O)C2CCN(CCc3ccc(F)cc3)CC2)c1OC (stereo not drawn) [Comparison from EP 0531410, (+)-α-(2,3-dimethoxyphenyl)-1-[2-(4-fluorophenyl)-ethyl]-4-piperidinemethanol, reference compound]	–	–	0%	–
